Legend:
Su.86 tumors = assay: Tumor growth delay, Su.86 xenografts; assay type: in vivo, mouse; conditions: tirapazamine followed by echinomycin at 24 hours, 6 cycles; compared to echinomycin followed by tirapazamine
Protocol: FIG. 10. Pharmacologic inhibition of HIF1 or PDK1 enhances the response of tumor xenografts to the hypoxic cytotoxin tirapazamine. For all experiments, treatment was initiated when the mean tumor volume was 100-200 mm^3. (a) RKO tumor bearing mice were treated with 0.12 mg/kg echinomycin ip followed by 30 mg/kg tirapazamine ip at 24 hours, followed by a rest day for 3 cycles. Single agents were given at the same dose, on the same schedule. (b) RKO tumor bearing mice were treated with 50 mg/kg DCA ip followed by 20 mg/kg tirapazamine ip at 4 hours daily for 14 days. Single agents were given at the same dose, on the same schedule. (c,d,e) RKO (c), RKOShHIF1α (d), or Su.86 (e) tumor bearing mice were treated with echinomycin plus tirapazamine as described above for 6 cycles (Ech+TPZ), or tirapazamine followed by echinomycin at 24 hours followed by a rest day for 6 cycles (TPZ+Ech). For all experiments, arrows indicate when treatment was stopped.
Cell lines and tumor xenografts. RKO human colon carcinoma cells and Su.86 human pancreatic carcinoma cells were obtained from the American Type Culture Collection (ATCC, Manassas, Va.). The RKOShHIF1α cell line in which HIF1α is stably knocked down by shRNA has been described previously. RKO and immortalized MEF cells were grown in Dulbecco's Modified Eagle's Media (DMEM) supplemented with 10% fetal bovine serum (FBS). […]

[1] = test system: RKO and RKOShHIF1α tumors; assay: Tumor hypoxia by pimonidazole immunofluorescence; assay type: in vivo, mouse
Protocol: FIG. 9. Increasing oxygen consumption by inhibition of HIF increases tumor hypoxia. (a-d) Pimonidazole staining of tumor sections from RKO (a,b) and RKOShHIF1α (c,d) tumors 24 h after treatment with PBS (a,c) or echinomycin (b,d). The tumor section is outlined in white, pimonidazole staining is shown in green, and the necrotic areas and cutting artifacts are shown in gray. (e) The mean hypoxic fraction of RKO and RKOShHIF1α tumors 24 h after treatment with PBS or echinomycin (n=4-5 tumors per group). Error bars represent the standard error of the mean. (*) indicates a significant difference (p<0.05).
Detection of tumor hypoxia by pimonidazole immunofluorescence. Mice bearing 100-300 mm^3 subcutaneous RKO and RKOshHIF tumors on either flank were treated with 0.12 mg/kg echinomycin ip or saline control, and 24 h later they were injected with the hypoxia marker drug pimonidazole (60 mg/kg ip) (Millipore, Temecula, Calif.). Three hours after pimonidazole injection, tumors were excised, and frozen in Tissue-Tek O.C.T. compound. Frozen sections (10 μm thick) from the center regions of tumors were cut, air dried, and fixed for 15 min in acetone at 4 C. Slides were then air dried, rehydrated in PBS, and blocked for 30 min in 4% FBS, 5% non-fat milk, and 0.1% Triton X-100 in PBS. Slides were incubated for 1 hr at room temperature with a FITC-conjugated monoclonal antibody against pimonidazole (Millipore) diluted 1:20 in blocking solution. Slides were washed, counterstained with 50 nM propidium iodide (PI), and mounted under a coverslip in Vectashield medium (Vector Labs, Burlingame, Calif.).
FITC and Pi fluorescent signals for entire tumor sections (one section per tumor) were acquired using a 4× objective lens on a Nikon Eclipse E800 microscope equipped with a motorized scanning stage, a 12-bit QImaging camera (OImaging, Burnaby, Canada), and Bioquant imaging software (Bioquant, Nashville, Tenn.). Acquisition parameters were held constant for all samples. ImageJ software (NIH, Bethesda, Md.) was used to analyze the resulting tiled images. […]

[2] = 24 h after 0.12 mg/kg echinomycin ip vs vehicle

CS[C@H]1SC[C@H]2C(=O)N(C)[C@@H](C(C)C)C(=O)OC[C@@H](NC(=O)c3cnc4ccccc4n3)C(=O)N[C@@H](C)C(=O)N(C)[C@@H]1C(=O)N(C)[C@@H](C(C)C)C(=O)OC[C@@H](NC(=O)c1cnc3ccccc3n1)C(=O)N[C@@H](C)C(=O)N2C [echinomycin]
effect on growth of Su.86 tumors, reversed schedule (Su.86 tumors): little effect | extent of hypoxia in RKOShHIF1α tumors (pimonidazole) [1, 2]: no significant effect | hypoxic fraction of RKO tumors (pimonidazole) [1, 2]: increase in the hypoxic fraction | extent of necrosis in tumor sections ([1]; four treatment groups (RKO, RKOShHIF1α; echinomycin or vehicle)): no difference

Reference: patent US20070212360A1, “Modulation of mitochondrial oxygen consumption for therapeutic purposes” (priority 2006, published 2007)
